Experimental data as given in ChEMBL document CHEMBL1909046, “DrugMatrix in vitro pharmacology data”.

How the values were obtained:
[1] = DRUGMATRIX: Sodium/nucleoside co-transporter radioligand binding (ligand: nitrobenzylthioinosine); format: cell membranes, Cavia porcellus, Dunkin-Hartley, Cerebral cortex, Membrane; details: Not Active = under 50% inhibition at 10 µM
Nitric oxide synthase 1 = Nitric oxide synthase 1 (Rattus norvegicus, UniProt P29476); format: tissue-based, Cerebellum; also: in other assays of this panel Not Active means under 50% inhibition at 10 µM
[2] = molecular target: Platelet-activating factor receptor (Homo sapiens, UniProt P25105); assay: biochemical; format: tissue-based; details: platelet; also: in other assays of this panel Not Active means under 50% inhibition at 10 µM
[3] = DRUGMATRIX: GABAA, Muscimol, Central radioligand binding (ligand: [3H] Muscimol); format: cell membranes, Rattus norvegicus, Wistar, Brain, Membrane; details: Not Active = under 50% inhibition at 10 µM
[4] = molecular target: Vascular endothelial growth factor receptor 1 (Homo sapiens, UniProt P17948); format: cell-based; details: huvec; also: in other assays of this panel Not Active means under 50% inhibition at 10 µM
[5] = molecular target: T1, Cysteinyl leukotriene receptor 1 (Homo sapiens, UniProt Q9Y271); format: cell membranes, CHO-K1, Membrane; details: cho-k1; also: in other assays of this panel Not Active means under 50% inhibition at 10 µM
T1 sequence (Q9Y271 whole entry): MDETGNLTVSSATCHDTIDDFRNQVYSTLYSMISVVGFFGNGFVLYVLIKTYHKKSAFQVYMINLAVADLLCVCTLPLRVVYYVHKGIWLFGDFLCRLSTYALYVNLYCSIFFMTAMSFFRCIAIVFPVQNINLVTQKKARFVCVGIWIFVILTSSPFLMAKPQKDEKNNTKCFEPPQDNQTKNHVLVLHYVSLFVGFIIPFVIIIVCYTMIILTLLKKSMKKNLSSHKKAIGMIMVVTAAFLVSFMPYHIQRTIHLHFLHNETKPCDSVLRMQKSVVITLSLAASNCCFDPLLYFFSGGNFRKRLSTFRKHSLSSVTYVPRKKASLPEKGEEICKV

[6] = DRUGMATRIX: ATPase, Na+/K+ enzyme inhibition (substrate: ATP); format: tissue-based, Sus scrofa, Heart; details: Not Active = under 50% inhibition at 10 µM
[7] = molecular target: C-C chemokine receptor type 5 (Homo sapiens, UniProt P51681); format: cell membranes, Membrane; details: hek293; also: in other assays of this panel Not Active means under 50% inhibition at 10 µM
Cytochrome P450 2E1 = Cytochrome P450 2E1 (Homo sapiens, UniProt P05181); details: bti-tn-5b1-4; also: in other assays of this panel Not Active means under 50% inhibition at 10 µM
D(4) dopamine receptor = molecular target: T2, D(4) dopamine receptor (Homo sapiens, UniProt P21917); assay: DRUGMATRIX: Dopamine D4.2 radioligand binding (ligand: [3H] Spiperone); format: cell membranes, CHO-K1, Membrane; details: cho-k1; Not Active = under 50% inhibition at 10 µM
T2 sequence (P21917 whole entry): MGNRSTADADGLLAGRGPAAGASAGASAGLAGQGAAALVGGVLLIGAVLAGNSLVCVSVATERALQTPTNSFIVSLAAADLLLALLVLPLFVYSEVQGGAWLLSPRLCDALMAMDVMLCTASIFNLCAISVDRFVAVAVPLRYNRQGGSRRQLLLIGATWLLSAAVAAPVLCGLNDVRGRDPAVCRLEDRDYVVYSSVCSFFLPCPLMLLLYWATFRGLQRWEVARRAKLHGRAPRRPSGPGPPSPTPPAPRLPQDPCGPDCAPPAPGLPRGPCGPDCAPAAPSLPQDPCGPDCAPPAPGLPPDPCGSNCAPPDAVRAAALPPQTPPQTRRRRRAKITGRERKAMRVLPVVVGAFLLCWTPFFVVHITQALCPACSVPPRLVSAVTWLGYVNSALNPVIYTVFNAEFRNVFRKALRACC

[8] = DRUGMATRIX: Imidazoline I2, Central radioligand binding (ligand: [3H] Idazoxan); format: cell membranes, Rattus norvegicus, Wistar, Cerebral cortex, Membrane; details: Not Active = under 50% inhibition at 10 µM
[9] = molecular target: Mitogen-activated protein kinase 3 (Homo sapiens, UniProt P27361); assay: DRUGMATRIX: Protein Serine/Threonine Kinase, ERK1 enzyme inhibition (substrate: Myelin Basic Protein); parameters: species or system Escherichia coli; details: Not Active = under 50% inhibition at 10 µM
Vasopressin V1a receptor = Vasopressin V1a receptor (Homo sapiens, UniProt P37288); format: cell membranes, Membrane; details: hek293; also: in other assays of this panel Not Active means under 50% inhibition at 10 µM
Substance-K receptor = molecular target: T3, Substance-K receptor (Homo sapiens, UniProt P21452); format: cell membranes, CHO, Membrane; details: cho; also: in other assays of this panel Not Active means under 50% inhibition at 10 µM
T3 sequence (P21452 whole entry): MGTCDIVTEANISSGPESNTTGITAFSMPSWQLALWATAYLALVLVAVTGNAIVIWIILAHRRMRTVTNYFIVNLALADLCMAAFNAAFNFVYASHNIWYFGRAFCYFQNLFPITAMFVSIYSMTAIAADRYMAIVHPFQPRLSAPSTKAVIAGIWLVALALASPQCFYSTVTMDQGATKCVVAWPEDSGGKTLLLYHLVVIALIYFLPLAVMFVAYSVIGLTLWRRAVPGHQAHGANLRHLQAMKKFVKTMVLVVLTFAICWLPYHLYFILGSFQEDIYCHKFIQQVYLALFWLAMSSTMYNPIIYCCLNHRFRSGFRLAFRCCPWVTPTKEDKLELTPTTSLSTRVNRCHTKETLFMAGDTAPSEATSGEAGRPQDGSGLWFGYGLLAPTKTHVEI

[10] = molecular target: T4, Type-2 angiotensin II receptor (Homo sapiens, UniProt P50052); format: cell-based; details: cho-k1; also: in other assays of this panel Not Active means under 50% inhibition at 10 µM
T4 sequence (P50052 whole entry): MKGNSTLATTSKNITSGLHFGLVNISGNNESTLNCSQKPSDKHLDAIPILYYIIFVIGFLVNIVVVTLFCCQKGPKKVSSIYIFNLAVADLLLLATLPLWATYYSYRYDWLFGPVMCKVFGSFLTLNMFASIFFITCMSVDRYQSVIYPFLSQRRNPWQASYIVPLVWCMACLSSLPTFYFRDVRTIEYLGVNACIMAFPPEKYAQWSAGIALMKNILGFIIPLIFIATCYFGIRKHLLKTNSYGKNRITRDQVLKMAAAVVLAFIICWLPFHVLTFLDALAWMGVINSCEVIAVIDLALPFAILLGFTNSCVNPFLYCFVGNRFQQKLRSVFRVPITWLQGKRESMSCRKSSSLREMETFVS

Histamine H2 receptor = Histamine H2 receptor (Homo sapiens, UniProt P25021); format: cell membranes, CHO-K1, Membrane; details: cho-k1; also: in other assays of this panel Not Active means under 50% inhibition at 10 µM
Adenosine receptor A3 = molecular target: T5, Adenosine receptor A3 (Homo sapiens, UniProt P0DMS8); format: cell membranes, CHO-K1, Membrane; details: cho-k1
T5 sequence (P0DMS8 whole entry): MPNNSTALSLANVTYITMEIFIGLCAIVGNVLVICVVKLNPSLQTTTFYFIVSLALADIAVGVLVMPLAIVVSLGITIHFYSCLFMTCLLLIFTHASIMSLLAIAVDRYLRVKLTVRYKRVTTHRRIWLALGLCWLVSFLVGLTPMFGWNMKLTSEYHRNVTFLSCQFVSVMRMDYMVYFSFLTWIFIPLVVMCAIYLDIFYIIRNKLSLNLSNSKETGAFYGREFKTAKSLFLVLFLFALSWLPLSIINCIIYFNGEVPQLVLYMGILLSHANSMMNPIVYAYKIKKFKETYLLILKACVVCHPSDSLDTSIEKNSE

Cannabinoid receptor 1 = Cannabinoid receptor 1 (Homo sapiens, UniProt P21554); format: cell membranes, Membrane; details: chem-1; also: in other assays of this panel Not Active means under 50% inhibition at 10 µM
Sequence of Cannabinoid receptor 1 (P21554 whole entry): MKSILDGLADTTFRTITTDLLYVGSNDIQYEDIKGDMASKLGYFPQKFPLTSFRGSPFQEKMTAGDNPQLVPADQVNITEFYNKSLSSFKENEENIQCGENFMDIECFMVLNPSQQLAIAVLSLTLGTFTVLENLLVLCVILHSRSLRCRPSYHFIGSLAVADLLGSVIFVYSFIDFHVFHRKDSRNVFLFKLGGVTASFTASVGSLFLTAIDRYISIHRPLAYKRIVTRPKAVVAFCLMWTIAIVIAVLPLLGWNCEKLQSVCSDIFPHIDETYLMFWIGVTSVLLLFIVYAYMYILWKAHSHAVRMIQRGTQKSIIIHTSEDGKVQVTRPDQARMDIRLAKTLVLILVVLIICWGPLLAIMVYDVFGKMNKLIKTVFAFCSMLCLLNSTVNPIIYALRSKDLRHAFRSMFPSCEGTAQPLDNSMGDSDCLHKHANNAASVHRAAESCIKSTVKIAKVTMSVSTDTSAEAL

Sequence of Nitric oxide synthase 1 (P29476 whole entry): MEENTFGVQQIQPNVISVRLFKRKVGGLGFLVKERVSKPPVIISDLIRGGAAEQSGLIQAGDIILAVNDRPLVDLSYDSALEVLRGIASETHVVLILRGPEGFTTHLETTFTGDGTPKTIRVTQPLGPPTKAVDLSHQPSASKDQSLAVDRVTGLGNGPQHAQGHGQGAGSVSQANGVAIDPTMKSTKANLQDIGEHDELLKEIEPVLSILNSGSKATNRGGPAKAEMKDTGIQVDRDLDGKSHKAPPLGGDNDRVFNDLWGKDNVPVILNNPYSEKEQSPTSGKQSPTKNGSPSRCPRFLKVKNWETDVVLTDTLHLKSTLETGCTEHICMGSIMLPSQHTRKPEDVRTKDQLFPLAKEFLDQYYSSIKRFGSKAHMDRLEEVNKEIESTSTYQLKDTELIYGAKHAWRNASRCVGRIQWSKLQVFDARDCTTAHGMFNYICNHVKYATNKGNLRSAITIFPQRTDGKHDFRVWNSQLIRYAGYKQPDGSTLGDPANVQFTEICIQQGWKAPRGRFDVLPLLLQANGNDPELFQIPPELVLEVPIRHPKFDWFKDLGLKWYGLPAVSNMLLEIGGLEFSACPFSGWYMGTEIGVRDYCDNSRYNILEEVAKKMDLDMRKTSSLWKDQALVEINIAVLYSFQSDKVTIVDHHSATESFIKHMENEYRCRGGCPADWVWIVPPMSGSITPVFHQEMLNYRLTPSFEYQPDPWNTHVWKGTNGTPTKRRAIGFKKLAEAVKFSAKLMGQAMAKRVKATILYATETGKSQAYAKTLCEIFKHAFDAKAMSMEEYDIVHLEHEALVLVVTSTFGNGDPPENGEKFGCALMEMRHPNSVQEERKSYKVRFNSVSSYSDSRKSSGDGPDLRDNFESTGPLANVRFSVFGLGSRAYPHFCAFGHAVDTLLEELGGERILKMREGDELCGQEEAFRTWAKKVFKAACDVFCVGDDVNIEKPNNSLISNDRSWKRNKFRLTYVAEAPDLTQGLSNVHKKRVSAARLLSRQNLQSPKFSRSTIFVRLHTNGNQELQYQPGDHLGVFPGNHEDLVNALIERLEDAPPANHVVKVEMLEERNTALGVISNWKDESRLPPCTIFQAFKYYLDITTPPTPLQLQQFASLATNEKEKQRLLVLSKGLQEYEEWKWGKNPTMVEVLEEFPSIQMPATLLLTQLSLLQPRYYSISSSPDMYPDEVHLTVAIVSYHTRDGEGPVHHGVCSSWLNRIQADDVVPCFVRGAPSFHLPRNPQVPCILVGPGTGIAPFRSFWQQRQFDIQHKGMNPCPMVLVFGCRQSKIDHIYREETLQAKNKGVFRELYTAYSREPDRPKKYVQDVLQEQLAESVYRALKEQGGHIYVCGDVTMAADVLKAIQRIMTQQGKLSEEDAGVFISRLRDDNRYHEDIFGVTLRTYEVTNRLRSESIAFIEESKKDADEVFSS
Sequence of Platelet-activating factor receptor (P25105 whole entry): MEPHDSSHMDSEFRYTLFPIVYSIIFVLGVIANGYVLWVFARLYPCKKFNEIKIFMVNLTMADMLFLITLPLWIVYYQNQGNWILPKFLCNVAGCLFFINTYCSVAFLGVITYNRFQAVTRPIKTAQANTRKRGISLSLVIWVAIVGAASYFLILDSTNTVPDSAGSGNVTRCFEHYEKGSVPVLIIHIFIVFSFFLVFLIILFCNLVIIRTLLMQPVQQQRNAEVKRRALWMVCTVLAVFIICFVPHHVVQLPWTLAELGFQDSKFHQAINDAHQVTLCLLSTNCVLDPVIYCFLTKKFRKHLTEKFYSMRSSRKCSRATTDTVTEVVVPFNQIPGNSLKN
Sequence of Vasopressin V1a receptor (P37288 whole entry): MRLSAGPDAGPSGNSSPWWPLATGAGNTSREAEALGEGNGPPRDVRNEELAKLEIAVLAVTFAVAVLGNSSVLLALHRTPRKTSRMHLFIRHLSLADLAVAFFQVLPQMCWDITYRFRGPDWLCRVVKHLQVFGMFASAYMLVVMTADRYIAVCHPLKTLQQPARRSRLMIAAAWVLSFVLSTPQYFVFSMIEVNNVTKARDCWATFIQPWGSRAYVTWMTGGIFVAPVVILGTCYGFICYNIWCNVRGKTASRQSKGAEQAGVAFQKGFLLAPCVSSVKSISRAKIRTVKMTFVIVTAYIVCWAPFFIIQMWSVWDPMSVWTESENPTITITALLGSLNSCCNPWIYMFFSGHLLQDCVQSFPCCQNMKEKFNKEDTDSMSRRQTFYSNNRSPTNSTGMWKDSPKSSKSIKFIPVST
Sequence of Cytochrome P450 2E1 (P05181 whole entry): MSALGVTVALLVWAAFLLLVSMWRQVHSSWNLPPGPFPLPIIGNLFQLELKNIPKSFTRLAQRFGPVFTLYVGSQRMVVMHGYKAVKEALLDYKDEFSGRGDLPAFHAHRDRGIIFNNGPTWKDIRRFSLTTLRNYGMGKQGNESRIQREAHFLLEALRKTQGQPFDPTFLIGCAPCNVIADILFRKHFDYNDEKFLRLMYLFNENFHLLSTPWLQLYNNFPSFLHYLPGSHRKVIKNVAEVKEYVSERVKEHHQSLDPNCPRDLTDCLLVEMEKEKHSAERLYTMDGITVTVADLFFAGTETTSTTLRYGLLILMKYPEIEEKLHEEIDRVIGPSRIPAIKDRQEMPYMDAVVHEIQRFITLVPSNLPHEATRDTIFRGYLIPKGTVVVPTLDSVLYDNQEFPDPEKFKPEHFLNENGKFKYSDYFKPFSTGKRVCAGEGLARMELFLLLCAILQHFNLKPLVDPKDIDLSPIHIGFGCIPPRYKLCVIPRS
Sequence of Histamine H2 receptor (P25021 whole entry): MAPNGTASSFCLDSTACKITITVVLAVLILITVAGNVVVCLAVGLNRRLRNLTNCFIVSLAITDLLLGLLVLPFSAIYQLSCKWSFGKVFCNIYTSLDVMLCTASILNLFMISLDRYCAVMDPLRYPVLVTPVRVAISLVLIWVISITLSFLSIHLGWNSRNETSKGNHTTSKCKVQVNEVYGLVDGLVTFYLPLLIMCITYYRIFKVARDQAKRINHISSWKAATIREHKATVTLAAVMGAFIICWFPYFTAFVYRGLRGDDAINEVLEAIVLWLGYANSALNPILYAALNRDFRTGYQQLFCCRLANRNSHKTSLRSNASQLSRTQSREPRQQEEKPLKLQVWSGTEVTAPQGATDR
Sequence of Mitogen-activated protein kinase 3 (P27361 whole entry): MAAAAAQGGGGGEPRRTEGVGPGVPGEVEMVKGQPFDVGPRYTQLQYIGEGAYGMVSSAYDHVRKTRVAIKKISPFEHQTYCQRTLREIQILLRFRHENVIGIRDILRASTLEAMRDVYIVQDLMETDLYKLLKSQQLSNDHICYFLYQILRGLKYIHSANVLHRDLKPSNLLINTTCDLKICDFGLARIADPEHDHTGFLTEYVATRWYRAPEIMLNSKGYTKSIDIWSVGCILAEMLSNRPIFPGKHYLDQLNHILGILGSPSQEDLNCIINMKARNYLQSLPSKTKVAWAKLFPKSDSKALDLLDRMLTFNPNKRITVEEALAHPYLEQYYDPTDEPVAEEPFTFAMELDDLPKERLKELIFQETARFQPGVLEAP
Sequence of C-C chemokine receptor type 5 (P51681 whole entry): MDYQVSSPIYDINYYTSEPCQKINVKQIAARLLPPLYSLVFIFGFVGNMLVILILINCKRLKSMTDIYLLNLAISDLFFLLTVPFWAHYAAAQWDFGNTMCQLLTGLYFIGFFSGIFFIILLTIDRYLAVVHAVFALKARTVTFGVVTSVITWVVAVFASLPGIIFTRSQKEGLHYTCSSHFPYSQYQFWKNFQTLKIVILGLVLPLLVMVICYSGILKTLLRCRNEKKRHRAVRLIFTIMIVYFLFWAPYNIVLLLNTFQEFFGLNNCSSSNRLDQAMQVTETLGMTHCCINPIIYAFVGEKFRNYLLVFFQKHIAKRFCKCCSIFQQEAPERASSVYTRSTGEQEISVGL

CC(CCc1ccccc1)NCC(O)c1ccc(O)c(C(N)=O)c1 (stereo not given) [LABETALOL]
Not Active: IC50 [1] | Ki [1] | IC50 (Nitric oxide synthase 1) | IC50 [2] | IC50 [3] | Ki [3] | IC50 [4] | IC50 [5] | IC50 [6] | Ki [6] | IC50 [7] | IC50 (Cytochrome P450 2E1) | Ki (Cytochrome P450 2E1) | IC50 (D(4) dopamine receptor) | IC50 [8] | Ki [8] | IC50 [9] | IC50 (Vasopressin V1a receptor) | IC50 (Substance-K receptor) | IC50 [10] | IC50 (Histamine H2 receptor) | IC50 (Adenosine receptor A3) | IC50 (Cannabinoid receptor 1)

Nc1nnc(-c2cccc(Cl)c2Cl)c(N)n1 [LAMOTRIGINE]
Not Active: IC50 [1] | Ki [1] | IC50 (Nitric oxide synthase 1) | IC50 [2] | IC50 [3] | Ki [3] | IC50 [4] | IC50 [5] | IC50 [6] | Ki [6] | IC50 [7] | IC50 (Cytochrome P450 2E1) | Ki (Cytochrome P450 2E1) | IC50 (D(4) dopamine receptor) | IC50 [8] | Ki [8] | IC50 [9] | IC50 (Vasopressin V1a receptor) | IC50 (Substance-K receptor) | IC50 [10] | IC50 (Histamine H2 receptor) | IC50 (Adenosine receptor A3) | IC50 (Cannabinoid receptor 1)

CCC[C@@H]1C[C@@H](C(=O)N[C@@H]([C@H]2O[C@H](SC)[C@H](O)[C@@H](O)[C@H]2O)[C@@H](C)O)N(C)C1 [LINCOMYCIN]
Not Active: IC50 [1] | Ki [1] | IC50 (Nitric oxide synthase 1) | IC50 [2] | IC50 [3] | Ki [3] | IC50 [4] | IC50 [5] | IC50 [6] | Ki [6] | IC50 [7] | IC50 (Cytochrome P450 2E1) | Ki (Cytochrome P450 2E1) | IC50 (D(4) dopamine receptor) | IC50 [8] | Ki [8] | IC50 [9] | IC50 (Vasopressin V1a receptor) | IC50 (Substance-K receptor) | IC50 [10] | IC50 (Histamine H2 receptor) | IC50 (Adenosine receptor A3) | IC50 (Cannabinoid receptor 1)

NCCCC[C@H](N[C@@H](CCc1ccccc1)C(=O)O)C(=O)N1CCC[C@H]1C(=O)O [LISINOPRIL ANHYDROUS]
Not Active: IC50 [1] | Ki [1] | IC50 (Nitric oxide synthase 1) | IC50 [2] | IC50 [3] | Ki [3] | IC50 [4] | IC50 [5] | IC50 [6] | Ki [6] | IC50 [7] | IC50 (Cytochrome P450 2E1) | Ki (Cytochrome P450 2E1) | IC50 (D(4) dopamine receptor) | IC50 [8] | Ki [8] | IC50 [9] | IC50 (Vasopressin V1a receptor) | IC50 (Substance-K receptor) | IC50 [10] | IC50 (Histamine H2 receptor) | IC50 (Adenosine receptor A3) | IC50 (Cannabinoid receptor 1)

COS(C)(=O)=O [METHANESULFONIC ACID METHYL ESTER]
Not Active: IC50 [1] | Ki [1] | IC50 (Nitric oxide synthase 1) | IC50 [2] | IC50 [3] | Ki [3] | IC50 [4] | IC50 [5] | IC50 [6] | Ki [6] | IC50 [7] | IC50 (Cytochrome P450 2E1) | Ki (Cytochrome P450 2E1) | IC50 (D(4) dopamine receptor) | IC50 [8] | Ki [8] | IC50 [9] | IC50 (Vasopressin V1a receptor) | IC50 (Substance-K receptor) | IC50 [10] | IC50 (Histamine H2 receptor) | IC50 (Adenosine receptor A3) | IC50 (Cannabinoid receptor 1)
